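Interpolation was linear, between the two tested concentrations surrounding the appropriate level; five concentrations were tested over 48 hours in 96-well plates. TGI: concentration producing complete growth inhibition.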

The values below come from PubChem BioAssay (NCI).

Test in all cases: DTP human tumour cell line panel, 48 h
In assay [1] the test system is CAKI-1 renal.
Assay [2] has as its system HCT-116 colon.
For assay [3], the system named is HL-60(TB) leukemia.
Assay [4] relates to HS 578T breast.
The test system of assay [5] is HT29 colon.
For assay [6], the system named is K-562 leukemia.
Assay [7] concerns LOX IMVI melanoma.
Assay [8] relates to MCF7 breast.
The test system of assay [9] is SF-268 CNS.
Assay [10] deals with SF-295 CNS.
For assay [11], the system named is SK-MEL-2 melanoma.
For assay [12], the system named is SK-MEL-28 melanoma.
Assay [13] deals with SK-MEL-5 melanoma.
Assay [14] deals with SW-620 colon.
In assay [15] the test system is TK-10 renal.
Assay [16] concerns U251 CNS.

In the case of `CCOC(=O)CCc1c(C(=O)OCC)[nH]c(/C=C2/NC(=O)C(C)=C2CC)c1C`, the TGI turned out to be 80.2 µM in assay [1]; 28.1 µM in assay [2]; 25.7 µM in assay [3]; 95.3 µM in assay [4]; 39.9 µM in assay [5]; 12.9 µM in [6]. Besides, the total growth inhibition concentration (TGI) in [7] is 21 µM; in assay [8], 17.7 µM; in assay [9], 29.2 µM; in assay [10] it was 30.6 µM; in assay [11] it was 40.9 µM; in [12], 30.2 µM. Besides, the concentration for total growth inhibition (TGI) in assay [13] was 13.2 µM; in assay [14], greater than 100 µM; in [15], 88.2 µM; in assay [16] it was 24.1 µM.

As for `COc1ccccc1NC(=O)C(C#N)=C(SC)SC`, the TGI in [1], in [2], in [3], in assay [4], in [5] and in [6] was greater than 100 µM throughout. The total growth inhibition concentration (TGI) in assay [7], in assay [8], in assay [9], in assay [10], in assay [11] and in assay [12] was greater than 100 µM throughout. Further, the TGI in [13], in [14], in assay [15] and in assay [16] was greater than 100 µM throughout.

In the case of `CC(C)=CCC/C(C)=C/Cc1cc(/C=C/c2cc(O)c(CC=C(C)C)c(O)c2)cc(O)c1O`, the total growth inhibition concentration (TGI) in [1] came to 16.9 µM; in assay [2], 11.9 µM; in assay [3] it was 2.79 µM; in [4] it was 26.8 µM; in assay [5], 13.6 µM; in assay [6], 10.4 µM. The concentration for total growth inhibition (TGI) in [7] stood at 7 µM; in assay [8], 13.4 µM; in assay [9], 12.3 µM; in assay [10], 18.2 µM; in [11], 9.4 µM; in assay [12], 17.5 µM. For the same molecule, the concentration for total growth inhibition (TGI) in [13] was found to be 5.88 µM; in assay [14], 14.5 µM; in assay [15] it was 14.2 µM; in assay [16], 5 µM.

Turning to `COc1ccc(NC(=O)C2=C(SC)C(C#N)C(=O)N=C2N)cc1` (configuration not stated), the TGI in assay [1], in assay [2], in assay [3], in assay [4], in assay [5] and in [6] was greater than 100 µM in each case. Further, the TGI in assay [7], in assay [8], in [9], in assay [10], in assay [11] and in assay [12] was greater than 100 µM throughout. For the same molecule, the concentration for total growth inhibition (TGI) in [13], in assay [14], in assay [15] and in assay [16] was greater than 100 µM in each case.

As for `CCCCCCN(C(=O)Oc1ccccc1)C(C#N)c1ccccc1` (configuration not stated), the TGI in [1], in assay [2], in [3], in assay [4], in assay [5] and in [6] was greater than 100 µM each time. The concentration for total growth inhibition (TGI) in assay [7], in assay [8], in assay [9], in assay [10], in assay [11] and in assay [12] was greater than 100 µM in each case. For the same molecule, the TGI in assay [13], in assay [14], in assay [15] and in [16] was greater than 100 µM each time.

As for `CC(=O)c1c2c(cc3c1CC1(Cc4cc5c(cc4C1)CCC5)C3)CCC2`, the TGI in [1], in assay [2], in [3], in [4], in assay [5] and in assay [6] was greater than 100 µM each time. Further, the total growth inhibition concentration (TGI) in [7], in assay [8], in [9], in assay [10], in assay [11] and in [12] was greater than 100 µM in each case. In addition, the TGI in assay [13], in assay [14], in assay [15] and in assay [16] was greater than 100 µM each time.

Turning to `N#Cc1cnn2c1n[n+]([O-])c1ccc(Cl)cc12`, the concentration for total growth inhibition (TGI) in [1] was 2.53 µM; in assay [2] it was 22.7 µM; in assay [3], 6.52 µM; in [4], greater than 24.7 µM; in [5], 21.7 µM; in assay [6] it was 3.91 µM. Further, the total growth inhibition concentration (TGI) in assay [7] was 8.51 µM; in assay [8], greater than 100 µM; in assay [9] it was greater than 40.3 µM; in assay [10], 29.6 µM; in assay [11], 17.2 µM; in assay [12], 27.7 µM. For the same molecule, the TGI in assay [13] was 25 µM; in assay [14] it was 29.6 µM; in [15] it was greater than 100 µM; in assay [16], 32.8 µM.

In the case of `CCOP(=O)(CS(C)=O)O[C@@H]1C[C@H](C)CC[C@H]1C(C)C` (some centres not stated), the total growth inhibition concentration (TGI) in [1] was 12.8 µM; in [2], greater than 23.9 µM; in [3] it was greater than 36.4 µM; in [4] it was 11.3 µM; in assay [5], greater than 34.1 µM; in assay [6] it was greater than 100 µM. For the same molecule, the total growth inhibition concentration (TGI) in assay [7] was 3.77 µM; in assay [8], 11.1 µM; in assay [9], 21.3 µM; in [10], 18.5 µM; in [11], 12.8 µM; in assay [12], greater than 100 µM. Further, the total growth inhibition concentration (TGI) worked out at 6.85 µM in assay [13], 14.6 µM in assay [14], 16.3 µM in assay [15] and 16.1 µM in assay [16].

For `O=C1C(NCCc2cc(Br)c(O)c(Br)c2)=CC(=O)c2ncccc21`, the concentration for total growth inhibition (TGI) was 25 µM in [1]; 12.4 µM in assay [2]; 12.7 µM in assay [3]; 9.2 µM in assay [4]; greater than 30.6 µM in [5]; 13.8 µM in [6]. The TGI is 8.69 µM in assay [7]; 17.4 µM in assay [8]; 40.3 µM in assay [9]; 12.9 µM in [10]; 29.9 µM in [11]; 10 µM in [12]. For the same molecule, the TGI in assay [13] was 2.83 µM; in assay [14], greater than 57.7 µM; in assay [15], 73 µM; in [16], 33 µM.

In the case of `C[N+](C)(C)CC1Cc2ccccc2C1=O` (configuration not stated), the concentration for total growth inhibition (TGI) in assay [1] is greater than 8.58 µM; in assay [2] it was 3.11 µM; in assay [3], 4.45 µM; in assay [4], greater than 10 µM; in [5], greater than 10 µM; in assay [6], 5.07 µM. Moreover, the TGI is greater than 10 µM in assay [7]; 5.41 µM in assay [8]; greater than 10 µM in assay [9]; greater than 10 µM in assay [10]; greater than 10 µM in assay [11]; greater than 10 µM in [12]. In addition, the concentration for total growth inhibition (TGI) in assay [13] was greater than 10 µM; in assay [14] it was 3.84 µM; in assay [15], greater than 10 µM; in assay [16], greater than 10 µM.

For the molecule `N#C/C(=C\c1ccc(Cl)cc1)c1nc2ccccc2c(=O)[nH]1`, the concentration for total growth inhibition (TGI) in assay [1] is greater than 100 µM; in [2], greater than 100 µM; in assay [3], greater than 100 µM; in [4] it was 60.6 µM; in assay [5], greater than 100 µM; in assay [6], greater than 100 µM. The concentration for total growth inhibition (TGI) in assay [7], in assay [8], in [9], in [10], in assay [11] and in assay [12] was greater than 100 µM each time. Moreover, the TGI in assay [13], in assay [14], in [15] and in assay [16] was greater than 100 µM throughout.

`Cc1ccc(-c2c(C#N)c(-c3ccc(N(C)C)cc3)c(C#N)c(=O)n2NS(=O)(=O)c2ccccc2)cc1`: the TGI in assay [1] is 98.3 µM; in [2], greater than 100 µM; in [3], greater than 100 µM; in assay [4], greater than 100 µM; in assay [5], greater than 100 µM; in assay [6], greater than 100 µM. Moreover, the concentration for total growth inhibition (TGI) in [7], in assay [8], in assay [9], in assay [10], in assay [11] and in assay [12] was greater than 100 µM throughout. For the same molecule, the TGI was 36.8 µM in assay [13], greater than 100 µM in assay [14], greater than 100 µM in [15] and greater than 100 µM in assay [16].

For the molecule `N#Cc1c(-c2ccccc2)c(C#N)c(=O)n(NS(=O)(=O)c2ccccc2)c1O`, the TGI in assay [1], in assay [2], in assay [3], in assay [4], in assay [5] and in assay [6] was greater than 100 µM in each case. Further, the concentration for total growth inhibition (TGI) in assay [7], in assay [8], in assay [9], in assay [10], in assay [11] and in assay [12] was greater than 100 µM throughout. Moreover, the TGI in [13], in assay [14], in assay [15] and in assay [16] was greater than 100 µM each time.

For the molecule `Cc1ccc2c(c1)C(C1Cc3c(C)cccc3C1=O)OC2=O` (configuration not stated), the TGI in [1], in assay [2], in [3], in [4], in assay [5] and in assay [6] was greater than 100 µM throughout. Also, the TGI in assay [7], in assay [8], in [9], in assay [10], in assay [11] and in assay [12] was greater than 100 µM throughout. Also, the TGI in assay [13], in assay [14], in [15] and in assay [16] was greater than 100 µM throughout.

As for `COc1ccc2oc(=N)c(C(N)=S)cc2c1`, the TGI in [1] is greater than 100 µM; in assay [2] it was 45.7 µM; in assay [3], greater than 100 µM; in assay [4] it was 58.6 µM; in assay [5], greater than 100 µM; in assay [6], greater than 100 µM. Moreover, the TGI was 33 µM in assay [7]; greater than 100 µM in assay [8]; 64.3 µM in [9]; greater than 100 µM in assay [10]; 38.3 µM in assay [11]; greater than 100 µM in assay [12]. Further, the total growth inhibition concentration (TGI) in [13] was 57.8 µM; in [14], greater than 100 µM; in [15] it was 90.2 µM; in assay [16], greater than 100 µM.

As for `Cc1ccc2c(ccc3c[n+]4ccccc4c(C)c32)c1`, the concentration for total growth inhibition (TGI) was 65.5 µM in assay [1]; 27.2 µM in [2]; greater than 100 µM in assay [3]; 15.3 µM in assay [4]; 25.9 µM in [5]; greater than 100 µM in assay [6]. For the same molecule, the total growth inhibition concentration (TGI) in [7] was determined as 27.8 µM; in assay [8], 15.6 µM; in [9] it was 6.64 µM; in assay [10], 27.2 µM; in assay [11] it was 11.6 µM; in assay [12], 11.5 µM. In addition, the TGI in assay [13] was 2.47 µM; in assay [14] it was 22.8 µM; in assay [15] it was 89.9 µM; in assay [16] it was 12.1 µM.

`CN(C)c1ccc(C(C#N)N2CCCN(C(C#N)c3ccc(N(C)C)cc3)C2c2ccc(N(C)C)cc2)cc1` (configuration not stated): the TGI in [1], in assay [2], in assay [3], in [4], in [5] and in assay [6] was greater than 100 µM in each case. Moreover, the concentration for total growth inhibition (TGI) in assay [7], in [8], in [9], in assay [10], in assay [11] and in assay [12] was greater than 100 µM each time. Moreover, the concentration for total growth inhibition (TGI) in [13], in [14], in assay [15] and in assay [16] was greater than 100 µM in each case.
